According to ChEMBL document CHEMBL3580628, “Introduction of polar groups on the naphthalene scaffold of molecular tongs inhibiting wild-type and mutated HIV-1 protease dimerization” (Medchemcomm, 2014):

Assays:
[1] = target: Protease (Human immunodeficiency virus 1) (UniProt Q9YQ12); assay: Competitive inhibition of HIV1 protease using fluorogenic substrate DABCYL- -abu-SQNYPIVQ-EDANS assessed as dissociation for dimer-inhibitor complex at 28 uM at pH 4.7 by fluorimetric assay
[2] = Retention time of the compound; type: physicochemical
Protease [3] = target: T1, Protease (Human immunodeficiency virus 1, UniProt Q9YQ12); assay: Dimerziation inhibition of HIV1 wild type protease using fluorogenic substrate DABCYL- -abu-SQNYPIVQ-EDANS at pH 4.7 by fluorimetric assay
[4] = Dimerziation inhibition of HIV1 ANAM11 protease mutant using fluorogenic substrate DABCYL- -abu-SQNYPIVQ-EDANS at pH 4.7 by fluorimetric assay; design: species or system Human immunodeficiency virus 1
[5] = Metabolic stability in Roswell park memorial institute medium containing 20% fetal calf serum assessed as degradation after 48 hrs by HPLC analysis; type: ADME; conditions: cattle
Protease [6] = target: T1, Protease; assay: Competitive inhibition of HIV1 protease using fluorogenic substrate DABCYL- -abu-SQNYPIVQ-EDANS assessed as dissociation for dimer-inhibitor complex at pH 4.7 by fluorimetric assay

SMILES	inhibition [1]	Retention_time [2]	Ki (Protease [3])	Ki [4]	Stability [5]	Ki (Protease [6])
COc1ccc(NC(C)=O)cc1C(=O)NNC(=O)[C@H](CCCCNC(=O)CCCOc1ccc2cc(NC(=O)CN3CCN(C(=O)OCc4ccccc4)CC3)c(OCCCC(=O)NCCCC[C@H](NC(=O)OC(C)(C)C)C(=O)NNC(=O)c3cc(NC(C)=O)ccc3OC)cc2c1)NC(=O)OC(C)(C)C	0%	13.8 min	–	–	–	–
COc1ccc(NC(C)=O)cc1C(=O)NNC(=O)[C@@H](NC(=O)CCCOc1ccc2ccc(OCCCC(=O)N[C@H](C(=O)NNC(=O)c3cc(NC(C)=O)ccc3OC)C(C)C)cc2c1)C(C)C	–	13.8 min	220 nM	–	–	–
COc1ccc(NC(C)=O)cc1C(=O)NNC(=O)[C@H](CCCCNC(=O)CCCOc1ccc2cc(N)c(OCCCC(=O)NCCCC[C@H](NC(=O)OC(C)(C)C)C(=O)NNC(=O)c3cc(NC(C)=O)ccc3OC)cc2c1)NC(=O)OC(C)(C)C	–	12.2 min	550 nM	830 nM	Stable	–
COc1ccc(NC(C)=O)cc1C(=O)NNC(=O)[C@H](CCCCNC(=O)CCCOc1ccc2cc(NCC(O)CO)c(OCCCC(=O)NCCCC[C@H](NC(=O)OC(C)(C)C)C(=O)NNC(=O)c3cc(NC(C)=O)ccc3OC)cc2c1)NC(=O)OC(C)(C)C (some centres not stated)	–	12.7 min	2750 nM	–	–	–
COc1ccc(NC(C)=O)cc1C(=O)NNC(=O)[C@H](CCCCNC(=O)CCCOc1ccc2cc(CCCN)c(OCCCC(=O)NCCCC[C@H](NC(=O)OC(C)(C)C)C(=O)NNC(=O)c3cc(NC(C)=O)ccc3OC)cc2c1)NC(=O)OC(C)(C)C	35%	11.4 min	–	–	–	–
COc1ccc(NC(C)=O)cc1C(=O)NNC(=O)[C@@H](NC(=O)CCCOc1ccc2cc(N)c(OCCCC(=O)N[C@H](C(=O)NNC(=O)c3cc(NC(C)=O)ccc3OC)C(C)C)cc2c1)C(C)C	–	10.6 min	400 nM	940 nM	–	–
COc1ccc(NC(C)=O)cc1C(=O)NNC(=O)[C@H](CCCCNC(=O)CCCOc1ccc2cc(NCC3COC(C)(C)O3)c(OCCCC(=O)NCCCC[C@H](NC(=O)OC(C)(C)C)C(=O)NNC(=O)c3cc(NC(C)=O)ccc3OC)cc2c1)NC(=O)OC(C)(C)C (some centres not stated)	–	15.2 min	5900 nM	–	–	–
COc1ccc(NC(C)=O)cc1C(=O)NNC(=O)[C@H](CCCCNC(=O)CCCOc1ccc2cc(CN)c(OCCCC(=O)NCCCC[C@H](NC(=O)OC(C)(C)C)C(=O)NNC(=O)c3cc(NC(C)=O)ccc3OC)cc2c1)NC(=O)OC(C)(C)C	–	11.1 min	300 nM	2450 nM	–	–
CNCC(=O)Nc1cc2ccc(OCCCC(=O)NCCCC[C@H](NC(=O)OC(C)(C)C)C(=O)NNC(=O)c3cc(NC(C)=O)ccc3OC)cc2cc1OCCCC(=O)NCCCC[C@H](NC(=O)OC(C)(C)C)C(=O)NNC(=O)c1cc(NC(C)=O)ccc1OC	18%	11.1 min	–	–	–	–
COc1ccc(NC(C)=O)cc1C(=O)NNC(=O)[C@H](CCCCNC(=O)CCCOc1ccc2ccc(OCCCC(=O)NCCCC[C@H](NC(=O)OC(C)(C)C)C(=O)NNC(=O)c3cc(NC(C)=O)ccc3OC)cc2c1)NC(=O)OC(C)(C)C	–	14.8 min	280 nM	2000 nM	–	–
COc1ccc(NC(C)=O)cc1C(=O)NNC(=O)[C@H](CCCCNC(=O)CCCOc1ccc2cc(CCCN(C)C)c(OCCCC(=O)NCCCC[C@H](NC(=O)OC(C)(C)C)C(=O)NNC(=O)c3cc(NC(C)=O)ccc3OC)cc2c1)NC(=O)OC(C)(C)C	0%	11.4 min	–	–	–	–
COc1ccc(NC(C)=O)cc1C(=O)NNC(=O)[C@@H](NC(=O)CCCOc1ccc2cc(NCC(O)CO)c(OCCCC(=O)N[C@H](C(=O)NNC(=O)c3cc(NC(C)=O)ccc3OC)C(C)C)cc2c1)C(C)C (some centres not stated)	–	11.3 min	600 nM	940 nM	Stable	–
COc1ccc(NC(C)=O)cc1C(=O)NNC(=O)[C@H](CCCCNC(=O)CCCOc1ccc2cc(NC(=O)CN3CCNCC3)c(OCCCC(=O)NCCCC[C@H](NC(=O)OC(C)(C)C)C(=O)NNC(=O)c3cc(NC(C)=O)ccc3OC)cc2c1)NC(=O)OC(C)(C)C	18%	11.2 min	–	–	–	–
COc1ccc(NC(C)=O)cc1C(=O)NNC(=O)[C@H](CCCCNC(=O)CCCOc1ccc2cc(CNC(=N)N)c(OCCCC(=O)NCCCC[C@H](NC(=O)OC(C)(C)C)C(=O)NNC(=O)c3cc(NC(C)=O)ccc3OC)cc2c1)NC(=O)OC(C)(C)C	–	11.2 min	–	–	–	15000 nM
COc1ccc(NC(C)=O)cc1C(=O)NNC(=O)[C@@H](NC(=O)CCCOc1ccc2cc(NCC3COC(C)(C)O3)c(OCCCC(=O)N[C@H](C(=O)NNC(=O)c3cc(NC(C)=O)ccc3OC)C(C)C)cc2c1)C(C)C (some centres not stated)	–	14.2 min	2700 nM	–	–	–
